These results are taken from patent US10919923B2, “Organic phosphorus-based compound, and flame retardant and flame-retardant product comprising the same” (TEIJIN LIMITED, priority 2016, dated 2021).

Format in all cases: physicochemical
Data set [1] in a line: Solubility in 20° C. water (visual check of dissolution). The conditions noted are these: distilled water at 20° C., stirred 1 minute per addition. Here is the method: Dissolution was visually checked after the organic phosphorus-based compound was added little by little to 100 g of distilled water adjusted to 20° C. and stirred for 1 minute for each addition.
Data set [2] can be described thus: ΔpH value of filtrate after stirring compound in dispersant solution. The conditions noted are these: 1 g compound in 1% phenol type nonionic surfactant solution, |pH1−pH2|. Here is the method: The ΔpH value can be measured by the following method using a commercially available pH measuring instrument. 1 g of a dispersant is added to 99 g of distilled water used for the measurement and stirred to measure the pH of the obtained aqueous solution (the measurement value is designated as pH1). After 1 g of the organic phosphorus-based compound (1) of the present invention is added to the aqueous solution and stirred for 1 minute, the organic phosphorus-based compound (1) is filtered. The pH of the obtained filtrate is measured (the measurement value is designated as pH2). The ΔpH value of the present invention is calculated from the following equation (I). ΔpH value=|pH1−pH2| (I) (vi) Volume Standard Median Diameter, (vii) Maximum Particle Diameter, (viii) Standard Deviation
This was measured by the following method using a pH measuring instrument (HORIBA pH METER D-52 of HORIBA, LTD.). 1 g of a dispersant (phenol type nonionic surfactant) was added to 99 g of distilled water used for the measurement and stirred to measure the pH of the obtained aqueous solution (the measurement value was designated as pH1). After 1 g of the organic phosphorus-based compound was added to the aqueous solution and stirred for 1 minute, the organic phosphorus-based compound was filtered. The pH of the obtained filtrate was measured (the measurement value was designated as pH2). The ΔpH value was calculated from the following equation (I). ΔpH value=|pH1−pH2| (I) (vi) Volume Standard Median Diameter, (vii) Maximum Particle Diameter, (viii) Standard Deviation

Data set [3] can be described thus: Storage stability of processing agent (fire retardant for fibers). The conditions noted are these: processing agent with 30 parts compound per 100 parts polyacrylic acid ester emulsion, 25° C. for 24 hours. Also noted: key: ◯: no agglomeration and no sedimentation are seen by visual checking; X: agglomeration and sedimentation are seen by visual checking. Here is the method: After interior car sheet cloth for automobiles was coated with the following processing liquid, its flame resistance and physical properties were tested. (test cloth): Polyester 100% woven car sheet cloth (weight of 300 g/m^2) was used. (processing agent): This was prepared by adding 1.5 parts of a nonionic surfactant, 1 part of a polyacrylic acid-based thickener and 0.5 part of 25% ammonia water to 100 parts of a polyacrylic acid ester emulsion having a solid content of 45% and further adding 30 parts of each of the above organic phosphorus-based compounds (FR-1 to FR-6) under agitation. The obtained processing agent was left to stand at 25° C. for 24 hours to evaluate its storage stability based on the following criteria.
◯: no agglomeration and no sedimentation are seen by visual checking
X: agglomeration and sedimentation are seen by visual checking

Data set [4] can be described thus: Particle size distribution by Microtrack HRA. As for the experimental part:
The volume standard median diameter (vi), the maximum particle diameter (vii) and the standard deviation (viii) can be measured by using the microtrack of Nikkiso Co., Ltd. and measurement conditions that the particles should be transparent and that the particle shape should be nonspherical.
They were measured by using the Microtrack HRA of Nikkiso Co., Ltd. The measurement conditions are that the particles should be transparent, the particle shape should be nonspherical, the refractive index of the particles should be 1.60, and the refractive index of the solvent should be 1.33.

As to `O=P1(Cc2ccccc2)OCC2(CO1)COP(=O)(Cc1ccccc1)OC2` (single isomer, unassigned) [FR-5, 2,4,8,10-tetraoxa-3,9-diphosphaspiro[5.5]undecane, 3,9-dibenzyl-3,9-dioxide], in data set [1], the “(ii) Solubility in 20° C. water” value was 0.01 g/100 g of water. The “(v) ΔpH value” in data set [2] is recorded as 0.5. For the same molecule, the Stability entry in data set [3] is on record as “◯”. Moreover, in data set [4], the “(vi) Volume standard median diameter” value was found to be 40 μm and the “(vii) Maximum particle diameter” value was determined as 300 μm.
In the same order, the values of `O=P1(C(c2ccccc2)c2ccccc2)OCC2(CO1)COP(=O)(C(c1ccccc1)c1ccccc1)OC2` (stereo not drawn) [FR-4, 2,4,8,10-tetraoxa-3,9-diphosphaspiro[5.5]undecane, 3,9-bis(diphenylmethyl)-3,9-dioxide] are 0.01 g/100 g of water, 0.7, “◯”, 25 μm and 180 μm.
In the same order, the values of `O=P1(Cc2ccccc2)OCC2(CO1)COP(=O)(Cc1ccccc1)OC2` (single isomer, unassigned) [FR-6, 2,4,8,10-tetraoxa-3,9-diphosphaspiro[5.5]undecane,3,9-dibenzyl-3,9-dioxide] are 0.01 g/100 g of water, 1.3, “X”, 21 μm and 140 μm.
The like results for `CC(c1ccccc1)P1(=O)OCC2(CO1)COP(=O)(C(C)c1ccccc1)OC2` (stereo not drawn) [FR-2, 2,4,8,10-tetraoxa-3,9-diphosphaspiro[5.5]undecane,3,9-diα-methylbenzyl-3,9-dioxide] were, in that order, 0.01 g/100 g of water, 0.6, “◯”, 20 μm and 160 μm.
`O=P1(Cc2ccccc2)OCC2(CO1)COP(=O)(Cc1ccccc1)OC2` (single isomer, unassigned) [FR-1, 2,4,8,10-tetraoxa-3,9-diphosphaspiro[5.5]undecane,3,9-dibenzyl-3,9-dioxide]: in data set [1], the “(ii) Solubility in 20° C. water” value is listed as 0.01 g/100 g of water. In data set [2], the “(v) ΔpH value” amounted to 0.5. In addition, the Stability entry in data set [3] is recorded as “◯”. In addition, in data set [4], the “(vi) Volume standard median diameter” value turned out to be 18 μm and the “(vii) Maximum particle diameter” value turned out to be 150 μm.
For the molecule `O=P1(CCc2ccccc2)OCC2(CO1)COP(=O)(CCc1ccccc1)OC2` (stereo not drawn) [FR-3, 2,4,8,10-tetraoxa-3,9-diphosphaspiro[5.5]undecane,3,9-di(2-phenylethyl)-3,9-dioxide], in data set [1], the “(ii) Solubility in 20° C. water” value is recorded as 0.01 g/100 g of water. The “(v) ΔpH value” in data set [2] amounted to 0.3. For the same molecule, the Stability entry in data set [3] is listed as “◯”. For the same molecule, in data set [4], the “(vi) Volume standard median diameter” value worked out at 22 μm and the “(vii) Maximum particle diameter” value is given as 140 μm.
